17 molecules from patent US20120190635A1, “SELECTIVE OXIDATION OF C-H BONDS OF MODIFIED SUBSTRATES BY P450 MONOOXYGENASE” (THE REGENTS OF THE UNIVERSITY OF MICHIGAN, priority 2009, published 2012) can be followed below.

Converted amounts (≈) assume the structure as drawn. A value given as a limit tells only on which side of the number the result lay.

The test system of test [1] is Kocuria rhizophila ATCC9341. In words: antibacterial MIC, microtiter dilution. To be noted: for MIC: Kocuria rhizophila, ATCC9341, read-out: Minimal inhibitory concentration; for Minimal inhibitory concentration: Kocuria rhizophila ATCC9341, Nutrient broth.
In test [2] the test system is Staphylococcus aureus ATCC6538P. In words: antibacterial MIC, microtiter dilution. To be noted: for MIC: Staphylococcus aureus, ATCC6538P, read-out: Minimal inhibitory concentration; for Minimal inhibitory concentration: Staphylococcus aureus ATCC6538P, LB.
In test [3] the test system is Bacillus subtillis DHS5333. The test can be described thus: antibacterial MIC, microtiter dilution. To be noted: for MIC: Bacillus, DHS5333, read-out: Minimal inhibitory concentration; for Minimal inhibitory concentration: Bacillus subtillis DHS5333, LB.
The subject of the next test is Deinococcus radiodurans. The test can be described thus: antibacterial MIC, microtiter dilution. Conditions: 60 h; for MIC: read-out: Minimal inhibitory concentration, Deinococcus radiodurans, Special media, 30° C.; for Minimal inhibitory concentration: Special media, 30° C.
For a further test, the system named is Escherichia. coli TolC. The test can be described thus: antibacterial MIC, microtiter dilution. Conditions: Mueller Hinten; for MIC: Escherichia coli, read-out: Minimal inhibitory concentration, E. coli W3110 TolC disruption mutant; for Minimal inhibitory concentration: E. coli W3110 TolC disruption mutant.
The subject of the next test is S. aureus NorA. The test can be described thus: antibacterial MIC, microtiter dilution. To be noted: for MIC: Staphylococcus aureus, read-out: Minimal inhibitory concentration; for Minimal inhibitory concentration: S. aureus 8325 NorA disruption mutant, Mueller Hinten.
In a further test the test system is Acinetobacter baumannii. In words: antibacterial MIC, microtiter dilution. To be noted: for MIC: read-out: Minimal inhibitory concentration; for Minimal inhibitory concentration: Mueller Hinten.
For test [4], the system named is Multidrug resistant S. aureus (MRSA). The test can be described thus: antibacterial MIC, microtiter dilution. Conditions: for MIC: Staphylococcus aureus, MRSA, read-out: Minimal inhibitory concentration; for Minimal inhibitory concentration: Multidrug resistant S. aureus (MRSA), Mueller Hinten.
In a further test the target is PikCD50N-RhFRED (Streptomyces venezuelae, UniProt O87605, D50N). The class given is biochemical. Conditions: for Number of products: Table 1.
PikCD50N-RhFRED, sequence (O87605 other isoform, or with tags, fused parts or gaps D50N): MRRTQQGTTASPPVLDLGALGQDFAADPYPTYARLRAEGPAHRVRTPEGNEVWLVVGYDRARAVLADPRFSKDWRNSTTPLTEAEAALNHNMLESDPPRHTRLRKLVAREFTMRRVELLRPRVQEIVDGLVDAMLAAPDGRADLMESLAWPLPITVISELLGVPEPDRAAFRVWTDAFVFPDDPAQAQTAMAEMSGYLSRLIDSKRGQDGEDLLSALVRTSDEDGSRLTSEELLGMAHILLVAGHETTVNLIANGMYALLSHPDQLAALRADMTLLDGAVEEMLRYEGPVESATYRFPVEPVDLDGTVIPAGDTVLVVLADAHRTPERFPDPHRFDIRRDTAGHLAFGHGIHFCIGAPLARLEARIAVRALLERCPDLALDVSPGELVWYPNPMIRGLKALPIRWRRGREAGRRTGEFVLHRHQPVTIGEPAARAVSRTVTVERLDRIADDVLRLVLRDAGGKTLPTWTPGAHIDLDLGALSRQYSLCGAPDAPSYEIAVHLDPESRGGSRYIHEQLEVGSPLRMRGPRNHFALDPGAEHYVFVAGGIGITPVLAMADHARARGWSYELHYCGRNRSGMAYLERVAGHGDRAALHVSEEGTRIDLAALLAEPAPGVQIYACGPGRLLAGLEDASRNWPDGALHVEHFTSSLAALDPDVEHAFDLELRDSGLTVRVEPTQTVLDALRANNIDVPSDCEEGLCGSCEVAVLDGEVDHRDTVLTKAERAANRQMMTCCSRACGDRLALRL

Consider `CC[C@H]1OC(=O)[C@H](C)[C@@H](O[C@H]2C[C@@](C)(OC)[C@@H](O)[C@H](C)O2)[C@H](C)[C@@H](O[C@@H]2O[C@H](C)C[C@H](N(C)C)[C@H]2O)[C@](C)(O)C[C@@H](C)C(=O)[C@H](C)[C@@H](O)[C@]1(C)O` [Erythromycin, reference compound], for which the MIC in [1] was below 0.8 µM; in [2] it was below 0.8 µM; in test [3] it was below 0.8 µM; in the test on Deinococcus radiodurans, 6.2 µM (≈ 4.55 µg/mL); in the test on Escherichia. coli TolC it was below 0.8 µM; in the test on S. aureus NorA it was below 0.8 µM. The results for the MIC (with Acinetobacter baumannii; in test [4]) were 25 µM (≈ 18.3 µg/mL) and above 100 µM, respectively.

As to `C[C@@H]1C[C@H](N(C)C)[C@@H](O)[C@H](OC2CCCCCCC(O)CCCCC2)O1` (single isomer, unassigned) [Compound 8-C7OH-a], the MIC (in [1]; in test [2]; in [3]; with Escherichia. coli TolC; in the test with S. aureus NorA; in the test on Acinetobacter baumannii) was above 400 µM in each case. In addition, the MIC in test [4] is above 400 µM. The same molecule came in with a Minimal inhibitory concentration in the test on Deinococcus radiodurans of 400 µM (≈ 149 µg/mL).

On PikCD50N-RhFRED (PikCD50N-RhFRED), `CC[C@H]1OC(=O)[C@H](C)[C@@H](O[C@@H]2OC(C)CC(C)C2C)[C@@H](C)C[C@@H](C)C(=O)/C=C/[C@H]1C` (stereo partly drawn) [Compound 1, YC-17, reference compound] displayed a Number of products of 2. Besides, the MIC was found to be 100 µM (≈ 42.3 µg/mL) in [1]; 100 µM (≈ 42.3 µg/mL) in test [2]; 100 µM (≈ 42.3 µg/mL) in [3]; 400 µM (≈ 169 µg/mL) with Deinococcus radiodurans; 100 µM (≈ 42.3 µg/mL) with Escherichia. coli TolC; 100 µM (≈ 42.3 µg/mL) in the test with S. aureus NorA. For the same molecule, the MIC (in the test on Acinetobacter baumannii; in test [4]) was above 400 µM throughout.

As to `OC1CCCCCCCCCCCCCC1` [Cyclopentadecanol, reference compound], the MIC (in test [1]; in test [2]; in [3]; in the test on Deinococcus radiodurans; with Escherichia. coli TolC; in the test on S. aureus NorA) was above 400 µM in each case. Also, the MIC (in the test on Acinetobacter baumannii; in test [4]) was above 400 µM throughout.

With `CN(C)CCCOC1CCCCCCCCCCCCCC1` [Compound 24, 3-(cyclopentadecyloxy)-N,N-dimethylpropan-1-amine], the “yield and selectivity (number of product peaks) relative to 12” value on PikCD50N-RhFRED (PikCD50N-RhFRED) is reported as “improved compared to 12”.

In the case of `CC1CC(N(C)C)C(O)C(OC2CCCCC2)O1` (stereo not drawn) [Compound 13, 2-(Cyclohexyloxy)-4-(dimethylamino)-6-methyltetrahydro-2H-pyran-3-ol], the Number of products on PikCD50N-RhFRED (PikCD50N-RhFRED) is given as 0. In addition, the MIC (in test [1]; in test [2]; in test [3]; in the test on Deinococcus radiodurans; in the test on Escherichia. coli TolC; in the test on S. aureus NorA) was above 400 µM in each case. The MIC (in the test with Acinetobacter baumannii; in test [4]) was above 400 µM throughout.

Take `C[C@@H]1C[C@H](N(C)C)[C@@H](O)[C@H](OC2CCCCCCC(O)CCCCC2)O1` (single isomer, unassigned) [Compound 8-C7OH-b]: the Minimal inhibitory concentration is above 400 µM in test [1]; above 400 µM in [2]; above 400 µM in [3]; 100 µM (≈ 37.2 µg/mL) in the test with Deinococcus radiodurans; 400 µM (≈ 149 µg/mL) in the test on Escherichia. coli TolC; above 400 µM in the test with S. aureus NorA. The Minimal inhibitory concentration (in the test on Acinetobacter baumannii; in [4]) was above 400 µM throughout.

As for `C[C@@H]1C[C@H](N(C)C)[C@@H](O)[C@H](OC2CCCCCCCC(O)CCCC2)O1` (stereo partly drawn) [Compound 8-C6OH-b, (2S,3R,4S,6R)-4-(dimethylamino)-2-(6-hydroxycyclotridecyloxy)-6-methyltetrahydro-2H-pyran-3-ol], the Minimal inhibitory concentration in test [1] is above 400 µM; in [2], above 400 µM; in [3], above 400 µM; with Deinococcus radiodurans, 400 µM (≈ 149 µg/mL); with Escherichia. coli TolC, above 400 µM; with S. aureus NorA, above 400 µM. In addition, the Minimal inhibitory concentration (with Acinetobacter baumannii; in [4]) was above 400 µM throughout.

`CC[C@H]1OC(=O)[C@H](C)C(=O)[C@H](C)[C@@H](O[C@@H]2O[C@H](C)C[C@H](N(C)C)[C@H]2O)[C@@H](C)C[C@@H](C)C(=O)/C=C/[C@H]1C` [Compound 4, narbomycin, reference compound]: the Minimal inhibitory concentration is below 3.1 µM in test [1]; 6.2 µM (≈ 3.16 µg/mL) in test [2]; below 3.1 µM in test [3]; 100 µM (≈ 51 µg/mL) in the test with Deinococcus radiodurans; 25 µM (≈ 12.7 µg/mL) in the test with Escherichia. coli TolC; 3.1 µM (≈ 1.58 µg/mL) in the test on S. aureus NorA. Besides, the Minimal inhibitory concentration (with Acinetobacter baumannii; in [4]) was above 400 µM each time.

Turning to `CCCCC#CCOC1OC(C)CC(N(C)C)C1O` (stereo not drawn) [Compound 16, 4-(Dimethylamino)-2-(hept-2-ynyloxy)-6-methyltetrahydro-2H-pyran-3-ol], the Number of products on PikCD50N-RhFRED (PikCD50N-RhFRED) worked out at 0.

As to `OC1CCCCCCCCCCC1` [Cyclododecanol, reference compound], at PikCD50N-RhFRED, the “hydroxylation by PikC / ability to serve as substrate, in words” value was “unable to serve as a substrate”. The MIC (in test [1]; in test [2]; in [3]; in the test with Deinococcus radiodurans; in the test on Escherichia. coli TolC; in the test with S. aureus NorA) was above 400 µM throughout. In addition, the MIC (with Acinetobacter baumannii; in test [4]) was above 400 µM in each case.

As to `C#CCCCCCCCCCOC1OC(C)CC(N(C)C)C1O` (stereo not drawn) [Compound 18, 4-(dimethylamino)-6-methyl-2-(undec-10-ynyloxy)-tetrahydro-2H-pyran-3-ol], the MIC in test [1] was above 400 µM; in test [2], above 400 µM; in [3] it was above 400 µM; with Deinococcus radiodurans it was above 400 µM; in the test on Escherichia. coli TolC, 400 µM (≈ 130 µg/mL); with S. aureus NorA, above 400 µM. Besides, the MIC (with Acinetobacter baumannii; in test [4]) was above 400 µM each time.

Turning to `CC1CC(N(C)C)C(O)C(OC2CCCC3CCCCC32)O1` (stereo not drawn) [Compound 14, 2-(Decahydronaphthalen-1-yloxy)-4-(dimethylamino)-6-methyltetrahydro-2H-pyran-3-ol], at PikCD50N-RhFRED (PikCD50N-RhFRED), the Number of products is given as 0. Also, the MIC (in test [1]; in test [2]; in test [3]; in the test on Deinococcus radiodurans; with Escherichia. coli TolC; with S. aureus NorA) was above 400 µM throughout. Moreover, the MIC (in the test with Acinetobacter baumannii; in test [4]) was above 400 µM in each case.

Consider `OC1CCCCCCCCCCCC1` [Cyclotridecanol, reference compound], for which the MIC (in test [1]; in [2]; in test [3]; in the test with Deinococcus radiodurans; in the test with Escherichia. coli TolC; in the test with S. aureus NorA) was above 400 µM throughout. For the same molecule, the MIC (in the test with Acinetobacter baumannii; in test [4]) was above 400 µM each time.

`CC[C@H]1OC(=O)[C@H](C)[C@@H](O[C@@H]2O[C@H](C)C[C@H](N(C)C)[C@H]2O)[C@@H](C)C[C@@H](C)C(=O)/C=C/[C@]1(C)O` [Compound 2, methymycin, reference compound]: the MIC is 50 µM (≈ 23.5 µg/mL) in [1]; 100 µM (≈ 47 µg/mL) in test [2]; 100 µM (≈ 47 µg/mL) in [3]; 200 µM (≈ 93.9 µg/mL) in the test with Deinococcus radiodurans; 50 µM (≈ 23.5 µg/mL) in the test with Escherichia. coli TolC; 100 µM (≈ 47 µg/mL) with S. aureus NorA. Further, the MIC (with Acinetobacter baumannii; in [4]) was above 400 µM each time.

Consider `CC[C@H]1OC(=O)[C@H](C)C(=O)[C@H](C)[C@@H](O[C@@H]2O[C@H](C)C[C@H](N(C)C)[C@H]2O)[C@@H](C)C[C@@H](C)C(=O)/C=C/[C@]1(C)O` [Compound 5, pikromycin, reference compound], for which the Minimal inhibitory concentration was found to be 6.2 µM (≈ 3.26 µg/mL) in test [1]; 25 µM (≈ 13.1 µg/mL) in [2]; 12.5 µM (≈ 6.57 µg/mL) in [3]; 100 µM (≈ 52.6 µg/mL) with Deinococcus radiodurans; 100 µM (≈ 52.6 µg/mL) with Escherichia. coli TolC; 12.5 µM (≈ 6.57 µg/mL) in the test on S. aureus NorA. Besides, the Minimal inhibitory concentration (with Acinetobacter baumannii; in test [4]) was above 400 µM throughout.

Turning to `C[C@@H]1C[C@H](N(C)C)[C@@H](O)[C@H](OC2CCCCCCCC(O)CCCC2)O1` (stereo partly drawn) [Compound 8-C6OH-a, (2S,3R,4S,6R)-4-(dimethylamino)-2-(6-hydroxycyclotridecyloxy)-6-methyltetrahydro-2H-pyran-3-ol], the MIC (in test [1]; in [2]; in [3]; in the test with Deinococcus radiodurans; in the test on Escherichia. coli TolC; with S. aureus NorA) was above 400 µM each time. Moreover, the MIC (in the test on Acinetobacter baumannii; in [4]) was above 400 µM each time.
